Assay results as given in PubChem BioAssay (NCI).
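Five concentrations, 48 hours, 96-well plates. TGI: concentration producing complete growth inhibition.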

Columns and labels:
Assay in all cases: growth of human tumour cells (NCI), 48 h
OVCAR-8 ovarian = tested on: OVCAR-8 ovarian
SR leukemia = tested on: SR leukemia
RPMI-8226 leukemia = tested on: RPMI-8226 leukemia
HL-60(TB) leukemia = tested on: HL-60(TB) leukemia
HS 578T breast = tested on: HS 578T breast
XF 498 CNS = tested on: XF 498 CNS
HT29 colon = tested on: HT29 colon
SNB-78 CNS = tested on: SNB-78 CNS
CCRF-CEM leukemia = tested on: CCRF-CEM leukemia
HCC-2998 colon = tested on: HCC-2998 colon
SK-MEL-5 melanoma = tested on: SK-MEL-5 melanoma
M19-MEL melanoma = tested on: M19-MEL melanoma
T-47D breast = tested on: T-47D breast
LOX IMVI melanoma = tested on: LOX IMVI melanoma
OVCAR-4 ovarian = tested on: OVCAR-4 ovarian
SF-268 CNS = tested on: SF-268 CNS
SF-539 CNS = tested on: SF-539 CNS
HOP-92 NSCLC = tested on: HOP-92 NSCLC
DMS 114 small cell lung = tested on: DMS 114 small cell lung
BT-549 breast = tested on: BT-549 breast
A549 NSCLC = tested on: A549 NSCLC
MDA-MB-435 = tested on: MDA-MB-435
UACC-257 melanoma = tested on: UACC-257 melanoma
SK-OV-3 ovarian = tested on: SK-OV-3 ovarian
SK-MEL-28 melanoma = tested on: SK-MEL-28 melanoma
NCI-H460 lung = tested on: NCI-H460 lung
HCT-15 colon = tested on: HCT-15 colon
NCI/ADR-RES ovarian = tested on: NCI/ADR-RES ovarian
786-0 renal = tested on: 786-0 renal
UACC-62 melanoma = tested on: UACC-62 melanoma
DMS 273 small cell lung = tested on: DMS 273 small cell lung
HCT-116 colon = tested on: HCT-116 colon
NCI-H226 lung = tested on: NCI-H226 lung
UO-31 renal = tested on: UO-31 renal
U251 CNS = tested on: U251 CNS
OVCAR-5 ovarian = tested on: OVCAR-5 ovarian
DU-145 prostate = tested on: DU-145 prostate
KM12 colon = tested on: KM12 colon
SF-295 CNS = tested on: SF-295 CNS
OVCAR-3 ovarian = tested on: OVCAR-3 ovarian
MDA-MB-231 breast = tested on: MDA-MB-231 breast
NCI-H522 lung = tested on: NCI-H522 lung
CAKI-1 renal = tested on: CAKI-1 renal
RXF 393 renal = tested on: RXF 393 renal
LXFL 529 NSCLC = tested on: LXFL 529 NSCLC
SN12C renal = tested on: SN12C renal
HOP-18 NSCLC = tested on: HOP-18 NSCLC
SK-MEL-2 melanoma = tested on: SK-MEL-2 melanoma
SW-620 colon = tested on: SW-620 colon
COLO 205 colon = tested on: COLO 205 colon
SNB-75 CNS = tested on: SNB-75 CNS
M14 melanoma = tested on: M14 melanoma
MALME-3M melanoma = tested on: MALME-3M melanoma
ACHN renal = tested on: ACHN renal
A498 renal = tested on: A498 renal
KM20L2 colon = tested on: KM20L2 colon
EKVX NSCLC = tested on: EKVX NSCLC
K-562 leukemia = tested on: K-562 leukemia
DLD-1 colon = tested on: DLD-1 colon
NCI-H23 lung = tested on: NCI-H23 lung
HOP-62 NSCLC = tested on: HOP-62 NSCLC
IGROV1 ovarian = tested on: IGROV1 ovarian
SNB-19 CNS = tested on: SNB-19 CNS
MCF7 breast = tested on: MCF7 breast
MOLT-4 leukemia = tested on: MOLT-4 leukemia
TK-10 renal = tested on: TK-10 renal
MDA-N = tested on: MDA-N

`CC1=C(N2CC2)C(=O)c2nc3n(c2C1=O)CCC3OC(=O)CCl` (stereo not given) was tested, and the TGI (OVCAR-8 ovarian) was 165 nM, the TGI (SR leukemia) was 13600 nM and the TGI (RPMI-8226 leukemia) was 1700 nM. It also gave a TGI (HL-60(TB) leukemia) of 3180 nM, a TGI (HS 578T breast) of 78.4 nM and a TGI (XF 498 CNS) of 95.4 nM. It also gave a TGI (HT29 colon) of 337 nM, a TGI (SNB-78 CNS) of 600 nM and a TGI (CCRF-CEM leukemia) of 3650 nM. The TGI (HCC-2998 colon) was 136 nM, the TGI (SK-MEL-5 melanoma) was 89.3 nM and the TGI (M19-MEL melanoma) was 266 nM. It also gave a TGI (T-47D breast) of 3880 nM, a TGI (LOX IMVI melanoma) of 117 nM and a TGI (OVCAR-4 ovarian) of 218 nM. It also gave a TGI (SF-268 CNS) of 202 nM, a TGI (SF-539 CNS) of 152 nM and a TGI (HOP-92 NSCLC) of 8040 nM. The TGI (DMS 114 small cell lung) was 512 nM, the TGI (BT-549 breast) was 44.4 nM and the TGI (A549 NSCLC) was 169 nM. It also gave a TGI (MDA-MB-435) of 112 nM, a TGI (UACC-257 melanoma) of 235 nM and a TGI (SK-OV-3 ovarian) of 290 nM. It also gave a TGI (SK-MEL-28 melanoma) of 141 nM, a TGI (NCI-H460 lung) of 123 nM and a TGI (HCT-15 colon) of 82.5 nM. The TGI (NCI/ADR-RES ovarian) was 86.2 nM, the TGI (786-0 renal) was 191 nM and the TGI (UACC-62 melanoma) was 69.6 nM. The TGI (DMS 273 small cell lung) was 128 nM, the TGI (HCT-116 colon) was 383 nM and the TGI (NCI-H226 lung) was 170 nM. For the same compound, the TGI (UO-31 renal) was 94.4 nM, the TGI (U251 CNS) was 237 nM and the TGI (OVCAR-5 ovarian) was 263 nM. It also gave a TGI (DU-145 prostate) of 190 nM, a TGI (KM12 colon) of 97.7 nM and a TGI (SF-295 CNS) of 204 nM. For the same compound, the TGI (OVCAR-3 ovarian) was 520 nM, the TGI (MDA-MB-231 breast) was greater than 100000 nM and the TGI (NCI-H522 lung) was 61.7 nM. It also gave a TGI (CAKI-1 renal) of 174 nM, a TGI (RXF 393 renal) of 69 nM and a TGI (LXFL 529 NSCLC) of 227 nM. The TGI (SN12C renal) was 267 nM, the TGI (HOP-18 NSCLC) was 178 nM and the TGI (SK-MEL-2 melanoma) was 271 nM. For the same compound, the TGI (SW-620 colon) was 191 nM, the TGI (COLO 205 colon) was 444 nM and the TGI (SNB-75 CNS) was 50 nM. It also gave a TGI (M14 melanoma) of 81.4 nM, a TGI (MALME-3M melanoma) of 103 nM and a TGI (ACHN renal) of 216 nM. The TGI (A498 renal) was 130 nM, the TGI (KM20L2 colon) was 547 nM and the TGI (EKVX NSCLC) was 551 nM. The TGI (K-562 leukemia) was 1610 nM, the TGI (DLD-1 colon) was 1580 nM and the TGI (NCI-H23 lung) was 82.5 nM. For the same compound, the TGI (HOP-62 NSCLC) was 145 nM, the TGI (IGROV1 ovarian) was 928 nM and the TGI (SNB-19 CNS) was 684 nM. For the same compound, the TGI (MCF7 breast) was 46.8 nM, the TGI (MOLT-4 leukemia) was 5890 nM and the TGI (TK-10 renal) was 639 nM. The TGI (MDA-N) was 56 nM.

Compound `CCO[C@]12C[C@H](OC)[C@@]3(O)CC(C1[C@H]3OCc1ccccc1)C13C4C2[C@H](OC)C1[C@](COC)(CN4CC)[C@H](O)C[C@@H]3OC` (stereo not given in full) has a TGI (OVCAR-8 ovarian) greater than 100000 nM, a TGI (SR leukemia) greater than 100000 nM and a TGI (RPMI-8226 leukemia) greater than 100000 nM. It also gave a TGI (HL-60(TB) leukemia) greater than 100000 nM, a TGI (XF 498 CNS) greater than 100000 nM and a TGI (HT29 colon) greater than 100000 nM. The TGI (SNB-78 CNS) was greater than 100000 nM, the TGI (CCRF-CEM leukemia) was greater than 100000 nM and the TGI (HCC-2998 colon) was greater than 100000 nM. It also gave a TGI (SK-MEL-5 melanoma) greater than 100000 nM, a TGI (M19-MEL melanoma) greater than 100000 nM and a TGI (LOX IMVI melanoma) greater than 100000 nM. The TGI (OVCAR-4 ovarian) was greater than 100000 nM, the TGI (SF-268 CNS) was greater than 100000 nM and the TGI (SF-539 CNS) was greater than 100000 nM. For the same compound, the TGI (DMS 114 small cell lung) was greater than 100000 nM, the TGI (A549 NSCLC) was greater than 100000 nM and the TGI (UACC-257 melanoma) was greater than 100000 nM. It also gave a TGI (SK-OV-3 ovarian) greater than 100000 nM, a TGI (SK-MEL-28 melanoma) greater than 100000 nM and a TGI (NCI-H460 lung) greater than 100000 nM. It also gave a TGI (HCT-15 colon) greater than 100000 nM, a TGI (786-0 renal) greater than 100000 nM and a TGI (UACC-62 melanoma) greater than 100000 nM. It also gave a TGI (DMS 273 small cell lung) greater than 100000 nM, a TGI (HCT-116 colon) greater than 100000 nM and a TGI (NCI-H226 lung) greater than 100000 nM. For the same compound, the TGI (UO-31 renal) was greater than 100000 nM, the TGI (U251 CNS) was greater than 100000 nM and the TGI (OVCAR-5 ovarian) was greater than 100000 nM. It also gave a TGI (RXF 393 renal) greater than 100000 nM, a TGI (LXFL 529 NSCLC) greater than 100000 nM and a TGI (SN12C renal) greater than 100000 nM. The TGI (SW-620 colon) was greater than 100000 nM, the TGI (COLO 205 colon) was greater than 100000 nM and the TGI (SNB-75 CNS) was greater than 100000 nM. For the same compound, the TGI (M14 melanoma) was greater than 100000 nM, the TGI (ACHN renal) was greater than 100000 nM and the TGI (KM20L2 colon) was greater than 100000 nM. The TGI (EKVX NSCLC) was greater than 100000 nM, the TGI (K-562 leukemia) was greater than 100000 nM and the TGI (DLD-1 colon) was greater than 100000 nM. For the same compound, the TGI (NCI-H23 lung) was greater than 100000 nM, the TGI (HOP-62 NSCLC) was greater than 100000 nM and the TGI (IGROV1 ovarian) was greater than 100000 nM. The TGI (SNB-19 CNS) was greater than 100000 nM, the TGI (MOLT-4 leukemia) was greater than 100000 nM and the TGI (TK-10 renal) was greater than 100000 nM.
